Legend:
[1] = 1O2 quantum yield determination with DPBF; details: acetonitrile; for 1O2 generation quantum yield (ϕΔ), DPBF: 470 nm blue light
Method: It was performed for complexes 1–8 in acetonitrile according to a relative procedure adapted from the literature[132]−[134] based on monitoring the oxidation of 1,3-diphenylisobenzofuran (DPBF, yellow) to 1,2-dibenzoylbenzene (colorless) photosensitized by the Ir(III) complexes. DPBF was used as an ^1O2 scavenger due to its fast reaction with this molecule. Fresh stock air-equilibrated solutions of photosensitizers (6.00 × 10^–6 M) and DPBF (1.50 × 10^–4 M) in acetonitrile were prepared. In a quartz cell, 1 mL of DPBF solution, 0.5 mL of complex solution, and 1.5 mL of acetonitrile were mixed to prepare a final solution with 5.00 × 10^–5 M DPBF and 1.00 × 10^–6 M complex. The final solutions were studied by recording UV–vis absorption spectra at room temperature in dark conditions (over a period of 6 min with time intervals of 2 min), under blue light irradiation (λexc = 470 nm, “Medusa” photoreactor) and under green light irradiation (λexc = 530 nm, “Medusa” photoreactor) for 5 s irradiation intervals during a total exposure period of 20 s. Absorption UV–vis spectra were recorded after every irradiation interval.
The consumption of DPBF probe was measured by monitoring its absorbance intensity decrease at 410 nm with irradiation time. ^1O2 generation quantum yield (ϕΔ) was calculated from eq 1 using Rose Bengal or [Ru(bpy)3]^2+ as reference for complexes with pbpz and pbpn ligands, respectively: [drawing 22] 1 where s and ref subscripts correspond to the complex and the reference, ϕΔ is the ^1O2 generation quantum yield (0.53 for Rose Bengal[135] and 0.56 for [Ru(bpy)3]Cl2[132] in degassed acetonitrile), S is the slope of the plots of the −ln(normalized absorbance) of DPBF at 410 nm vs the irradiation time, and F is the correction factor of absorption, which is given by F = 1–10^–O.D. (where O.D. is the optical density at 470 nm of solutions of complexes and references). The reproducibility of the results was confirmed by performing each experiment three times.
The stability of DPBF probe was studied in dark conditions and under light irradiation. In dark conditions and under green light irradiation the probe remains unaltered. However, under blue light irradiation, a photobleaching of DPBF was observed. Probe consumption was approximately 6.5% every 5 s. Therefore, a working interval of 20 s was chosen, where 75% of the probe remains stable. To calculate the ϕΔ, a correction factor was applied to the absorbance at 410 nm: a 6.5% of the previous value was added to each absorbance to counteract self-consumption of the probe (i.e., to the absorbance at 10 s, a 6.5% of the absorbance at 5 s was added).

[2] = Lipophilicity by the shake flask method; assay type: physicochemical; details: 1-octanol/water; for logD9.2: carbonate–bicarbonate buffer pH 9.2
Method: The partition coefficients of complexes 5, 6, 7, and 8 were determined by the standard “shake flask” method.[37],[84],[85] Octanol-saturated water (OSW) and water-saturated octanol (WSO) were prepared using analytical grade 1-octanol and ultrapure water. The complexes were dissolved in WSO and molar extinction coefficient was determined. Then, 2 mL of 25 μg/mL complex in WSO was shaken with 2 mL of OSW at 1500 rpm for 6 h at room temperature. To separate the phases, centrifugation was done at 4000 rpm for 10 min. The absorbance of WSO phase before and after shaking was measured. The absorbance of WSO before mixing minus the absorbance of WSO after mixing corresponds to the absorbance of the complex in OSW. The distribution coefficients (log Do/w) of the complexes were obtained from the ratio of the complexes present in 1-octanol and the aqueous phase (eq 3). Each experiment was repeated three times. To avoid protonation in complexes 5 and 6, a carbonate–bicarbonate buffer at pH 9.2 in OSW was used. [drawing 24] 3 where A1-oct corresponds to the absorbance of WSO phase and Atotal is the actual concentration of the WSO before shaking.

[3] = tested on: A549 cells; assay: Superoxide anion production (ROS-ID Superoxide Detection Kit); assay type: cell-based, human; details: 10 nM, photoactivated with blue light
Method: The types of ROS generated by the treatments were also investigated. Superoxide anion (O2^•–) production was monitored using the ROS-ID Superoxide Detection Kit (Enzo Life Sciences), which contains a cell-permeable probe that selectively emits orange fluorescence upon reacting with O2^•–. Following the treatments, cells were harvested and incubated with the probe for 30 min at 37 °C. Fluorescence emission from 1 × 10^4 cells was measured by flow cytometry (Ex/Em: 550/620 nm) and compared to that of control untreated cells. In addition, hydrogen peroxide (H2O2) generation was measured using the Hydrogen Peroxide Assay Kit (Cell-based) (Abcam). […] After 1 h of incubation at 37 °C, the median fluorescence of 1 × 10^4 cells was determined by flow cytometry (Ex/Em = 490/520 nm) and compared to that of control cells. All experiments were conducted in triplicate.

[4] = tested on: A549 cells; assay: Mitochondrial membrane potential (JC-1, flow cytometry); assay type: cell-based, human; details: 10 nM, blue light 1 h
Method: A549 cells were seeded onto 24-well plates. 24 h later, cells were incubated for 4 h with complexes 2, 4, 6, and 8 at 10 nM and then photoactivated or kept in the dark for an additional hour. Next, the cells were washed with PBS and harvested by trypsinization. Mitochondrial membrane potential changes were immediately measured by the JC-1 (5,5′,6,6′-tetrachloro-1,1′,3,3′-tetraethylbenzimidazolocarbo-cyanine iodide) Mitochondrial Membrane Potential Detection Kit (Biotium), according to the manufacturer’s instructions. As positive control, the cells were coincubated with CCCP (Sigma) at 5 μM for 30 min to disrupt the mitochondrial membrane potential. For each treatment, the fluorescence of 1 × 10^4 cells was analyzed by a Novocyte flow cytometer. JC-1 red aggregates were detected at a wavelength of 590 nm (FL2) and JC-1 green monomers at 529 nm (FL1).

[5] = tested on: A549 cells; assay: Lysosome damage (Acridine Orange, confocal microscopy); assay type: cell-based, human; details: 10 nM, blue light irradiation
Method: For confocal microscopy experiments, A549 cells were seeded onto glass-bottom 8-well chamber slides (Ibidi) (5 × 10^4 cells per well) and allowed to attach overnight. In each experiment, the cells were treated with the complexes at the indicated conditions and washed with PBS before staining. For mitochondria visualization, the cells were incubated with the fluorescent dye MitoTracker Red CMXRos (Molecular Probes) at 200 nM in serum-free culture medium for 30 min at 37 °C. Cell nuclei were counterstained in blue with Hoechst 33342 (Invitrogen) diluted 1:4000 in DMEM without phenol red. To analyze lysosomal damage, the cells were incubated with AO at 5 μM at 37 °C for 15 min. Before observation, the cells were washed twice with PBS and fresh growth medium without phenol red was added. Cell images were immediately obtained by a Nikon A1R confocal microscope and images were analyzed using the NIS-Elements AR (Nikon, Japan) and the Fiji/ImageJ software.

SMILES	1O2 generation quantum yield (ϕΔ), DPBF [1]	logP [2]	superoxide anion (O2•–) increase in mean fluorescence [3] [fold]	cells with red fluorescence (JC-1 aggregates), upper right quadrant [4] [%]	red fluorescent particles (lysosomes, AO staining) [5]	Slope (S) of ‐ln(normalized Abs) vs time, photooxidation of DPBF ([1]; λir = 470 nm)	Slope (S) of ‐ln(normalized Abs) vs time, photooxidation of DPBF ([1]; λir = 530 nm)	logD9.2 [2]
Cc1c(C)c(C)[c-](C)c1C.F[B-](F)(F)F.c1ccc(Cn2cc[n+]([Ir]3[c]4cccc5c6nc7ccccc7nc6c6ccc[n+]3c6c45)c2)cc1 [complex 7, [(η^5-C5Me5)Ir(bzIm)(pbpz)]BF4]	0.0204	1.65 ± 0.16						
Cc1c(C)c(C)[c-](C)c1C.[Cl][Ir]1[c]2cccc3c4nc5ccccc5nc4c4ccc[n+]1c4c23 [complex 1, [(η^5-C5Me5)IrCl(pbpz)]]	0.0780							
Cc1c(C)c(C)[c-](C)c1C.F[B-](F)(F)F.c1ccc(Cn2cc[n+]([Ir]3[c]4cccc5c6nc7cc8ccccc8cc7nc6c6ccc[n+]3c6c45)c2)cc1 [complex 8, [(η^5-C5Me5)Ir(bzIm)(pbpn)]BF4]	0.99	1.13 ± 0.03	2.6	6.6	completely disappeared	0.0771	0.0061	
Cc1c(C)c(C)[c-](C)c1C.F[B-](F)(F)F.c1ccc2nc3c4ccc[n+]5c4c4[c](cccc4c3nc2c1)[Ir]5[n+]1ccn(CCN2CCCCC2)c1 [complex 5, [(η^5-C5Me5)Ir(Imepip)(pbpz)]BF4]	0.026							1.10 ± 0.10
Cc1c(C)c(C)[c-](C)c1C.F[B-](F)(F)F.c1ccc2cc3nc4c5ccc[n+]6c5c5[c](cccc5c4nc3cc2c1)[Ir]6[n+]1cc[nH]c1 [complex 4, [(η^5-C5Me5)Ir(Im)(pbpn)]BF4]	0.9894		2.4	34.3	completely disappeared	0.0890	0.0058	
Cc1c(C)c(C)[c-](C)c1C.F[B-](F)(F)F.c1ccc2cc3nc4c5ccc[n+]6c5c5[c](cccc5c4nc3cc2c1)[Ir]6[n+]1ccn(CCN2CCCCC2)c1 [complex 6, [(η^5-C5Me5) Ir(Imepip)(pbpn)]BF4]	0.8118		2.8	16.9	completely disappeared	0.0657	0.0069	1.39 ± 0.07
